Experimental data taken from patent US20180153840A1, “THE COMPOSITIONS OF GLYCEROL AND /OR NON-TOXIC AMINO ACIDS FOR INHIBITING AND DESTROYING BIOFILM, INCLUDING RELATED METHODS” (priority 2015, published 2018).
“Also recorded” adds a separate entry of the source.

Columns and labels:
S. aureus biofilm [1] = assay: Bacterial biofilm inhibition assay; format: cell-based, Staphylococcus aureus; conditions: for activation at 1 %: Staphylococcus aureus, read-out: Promote B Biofilm
Procedure: (§1) For fungal biofilm assays, all solutions were prepared in RPMI 1640 medium. All bacterial biofilm solutions were prepared in Trypic Soy Broth (TSB), supplemented with 1% glucose (henceforth referred to as TSB-G). All subsequent procedures were performed in a manner that maintained sterility. A solution of each amino acid to be tested was prepared in weight to volume concentrations ranging from 0.1-5.0%. Amino acids were also tested in combinations. Compound solutions were homogenized with gentle agitation in the dark (4° C., 24 hours) before use.
(§2) All biofilm assays were performed using 384-well non-tissue culture treated polystyrene plates. The fungal species tested are as follows: Candida albicans, Candida guilliermondii Candida parapsilosis, Candida glabrata, Candida tropicalis and Candida dubliniensis. The bacterial species tested are as follows: Staphylococcus aureus (standard wild type and methicillin-resistant strain USA300), Escherichia coli, Pseudomonas aeruginosa and Staphylococcus epidermidis.
(§3) Bacterial strains were streaked on Blood Agar plates (5% sheep blood in Tryptic Soy Broth) and incubated at 37° C. for 24 hours. A single colony from each strain to be tested was inoculated in a TSB broth and grown for 12 hours, at 37° C. with shaking (225 rpm).
(§4) For the bacterial biofilm inhibition assays, 1 μL of saturated overnight cell culture was added to either 80 μL of TSB-G, or TSB-G supplemented with the amino acid compound solution to be tested, in a 384-well plate. The cells were allowed to adhere to the plate for 60 minutes at 37° C. without shaking. The media was carefully aspirated and 80 μL of TSB-G, or TSB-G supplemented with the amino acid compound solution was added to the plate. The plate was further incubated for 24 hours at 37° C. without shaking. Media was carefully aspirated and the biofilm was measured for bacterial cell concentration by optical density at 600 nm. Eight or twelve replicates were performed for each tested condition and the reported values were normalized to the control (TSB-G media only).

S. aureus biofilm [2] = assay: Bacterial biofilm disruption assay; format: cell-based; conditions: Staphylococcus aureus; for activation at 1 %: read-out: Promote B Biofilm; for inhibition at 1 %: read-out: Reduce B Biofilm
Procedure: as §1, §2, §3
(§5) For the bacterial biofilm disruption assays, 80 μL of TSB-G was added to the plate, along with 1 μL of overnight cell culture. The cells were allowed to adhere to the plate for 60 minutes at 37° C. without shaking. The media was carefully aspirated and 80 μL of TSB-G was added to the plate. The plate was further incubated for 24 hours at 37° C. without shaking. Media was carefully aspirated from the mature biofilm and 80 μL of TSB-G, or TSB-G supplemented with the amino acid to be tested, was gently added to the plate. The plate was further incubated for 24 hours at 37° C. without shaking. Media was aspirated and the biofilm was measured for bacterial cell concentration by optical density at 600 nm. Twelve replicates were performed for each tested condition and the reported values were normalized to the control (TSB-G media only).

bacterial biofilms = assay: Bacterial biofilm assays (sustained inhibition and/or disruption); format: cell-based, Staphylococcus aureus; conditions: for support (improve) bacterial biofilm growth: based on the two assays (sustained inhibition and/or disruption); for anti-biofilm properties against bacterial biofilms: individually, about 0.1 to about 5.0% weight to volume (cystathionine 0.2%), at least one of the two assays
Procedure: as §1, §2, §3, §4, §5

[3] = test system: bacterial and fungal biofilms; assay: In vitro testing on bacterial and fungal biofilms; format: cell-based; conditions: for effect on bacterial and fungal biofilm (in words): in vitro; for neutral, effect on bacterial or fungal biofilms: both assays (sustained inhibition and disruption)
Procedure: as §1, §2
(§6) Fungal strains were streaked on Yeast Peptone Dextrose (YPD) agar plates and incubated at 30° C. for 48 hours. A single colony from each strain to be tested was inoculated into YPD broth and grown for 12 hours, at 30° C., shaking at 225 rpm. For the fungal biofilm inhibition assay, 1 μl of saturated overnight cell culture was added to either 80 μL of RPMI-1640 or RPMI-1640 supplemented with the amino acid compound solution to be tested, in a 384-well plate. The cells were allowed to adhere to the plate for 90 minutes at 37° C. with shaking (350 rpm). Loosely bound cells were washed once with phosphate buffered saline (PBS) and 80 ul of RPMI-1640, or RPMI-1640 supplemented with the amino acid compound solution was added to the plate. The plate was further incubated for 24 hours at 37° C. with shaking (350 rpm). Media was carefully aspirated and the biofilm was measured for fungal cell concentration by optical density at 600 nm. Twelve replicates were performed for each tested condition and the reported values were normalized to the control (RPMI-1640 media only).
(§7) For the fungal biofilm disruption assays, 80 μL of RPMI-1640 was added to the plate, along with 1 μL of overnight cell culture. The cells were allowed to adhere to the plate for 90 minutes at 37° C. with shaking (350 rpm). Loosely bound cells were washed once with PBS and 80 μL of RPMI-1640 was added to the plate. The plate was further incubated for 24 hours at 37° C. with shaking (350 rpm). Media was carefully aspirated from the mature biofilm and 80 μL of RPMI-1640, or RPMI-1640 supplemented with the amino acid compound solution to be tested, was gently added to the plate. The plate was further incubated for 24 hours at 37° C. with shaking (350 rpm). Media was carefully aspirated and the biofilm was measured for fungal cell concentration by optical density at 600 nm. Twelve replicates were performed for each tested condition and the reported values are normalized to the control (RPMI-1640 media only).
as §3
as §4, with “nm.” for “nm. Eight or twelve replicates were performed for each tested condition and the reported values were normalized to the control (TSB-G media only).”

fungal biofilms = assay: Fungal biofilm assays (sustained inhibition and/or disruption); format: cell-based, Candida albicans; conditions: administered individually; at least one of the two assays (sustained inhibition and/or disruption)
Procedure: as §1, §2, §6, §7

[4] = sustained inhibition assay, S. aureus, 1% amino acid, p≤0.001
[5] = disruption assay, S. aureus, 1% amino acid, p≤0.001

Row | SMILES | activation at 1 % (S. aureus biofilm [1]; [4]) [%] | activation at 1 % (S. aureus biofilm [2]; [5]) [%] | support (improve) bacterial biofilm growth (bacterial biofilms) | effect on bacterial and fungal biofilm (in words) [3] | also measured
1 | NCC(=O)O [Glycine, L-glycine] | 10 to 30 | 10 to 30 | support (improve) bacterial biofilm growth | promote bacterial and fungal biofilm | –
2 | NC(=O)C[C@H](N)C(=O)O [Asparagine, L-asparagine] | 10 to 30 | – | support (improve) bacterial biofilm growth | – | –
3 | N=C(N)NCCC[C@H](N)C(=O)O [Arginine, L-arginine] | – | – | support (improve) bacterial biofilm growth | promote bacterial and fungal biofilm | activation at 1 % (S. aureus biofilm [1]): 10 to 30%; activation at 1 % (S. aureus biofilm [2]): 10 to 30%
4 | N[C@@H](CCS)C(=O)O [Homocysteine, L-homocysteine] | – | – | – | – | anti-biofilm properties against fungal biofilms (fungal biofilms): anti-biofilm properties against fungal biofilms; anti-biofilm properties against bacterial biofilms (bacterial biofilms): anti-biofilm properties against bacterial biofilms
5 | NCCOP(=O)(O)O [Phosphoethanolamine, O-phosphoethanolamine] | – | – | – | – | Reduce B Biofilm (S. aureus biofilm [1]; [4]): • (a single dot (●) signifies an effect in a range of about 10 to about 30% change); inhibition at 1 % (S. aureus biofilm [2]; [5]): 10 to 30%; anti-biofilm properties against bacterial biofilms (bacterial biofilms): anti-biofilm properties against bacterial biofilms
6 | N[C@@H](Cc1ccccc1)C(=O)O [Phenylalanine, L-phenylalanine] | 10 to 30 | 10 to 30 | support (improve) bacterial biofilm growth | promote bacterial and fungal biofilm | –
7 | NCCC[C@H](N)C(=O)O [Ornithine, L-ornithine] | – | 10 to 30 | support (improve) bacterial biofilm growth | – | –
8 | N[C@@H](CO)C(=O)O [Serine, L-serine] | 10 to 30 | 10 to 30 | support (improve) bacterial biofilm growth | promote bacterial and fungal biofilm | –
9 | CC(C)C[C@H](N)C(=O)O [Leucine, L-leucine] | 10 to 30 | 10 to 30 | support (improve) bacterial biofilm growth | promote bacterial and fungal biofilm | –
10 | C[C@H](N)C(=O)O [Alanine, L-alanine] | – | 10 to 30 | support (improve) bacterial biofilm growth | promote bacterial and fungal biofilm | –
11 | N[C@@H](Cc1c[nH]c2ccccc12)C(=O)O [Tryptophan, L-tryptophan] | – | – | support (improve) bacterial biofilm growth | promote bacterial and fungal biofilm | activation at 1 % (S. aureus biofilm [1]): 10 to 30%
12 | N[C@@H](Cc1ccc(O)cc1)C(=O)O [Tyrosine, L-tyrosine] | – | – | – | neutral effect on biofilm | neutral, effect on bacterial or fungal biofilms [3]: no effect on bacterial or fungal biofilms
13 | NC(=O)CC[C@H](N)C(=O)O [Glutamine, L-glutamine] | – | – | – | – | neutral, effect on bacterial or fungal biofilms [3]: no effect on bacterial or fungal biofilms
14 | NC(=O)NCCC[C@H](N)C(=O)O [Citrulline, L-citrulline] | – | – | support (improve) bacterial biofilm growth | – | activation at 1 % (S. aureus biofilm [1]): 10 to 30%; activation at 1 % (S. aureus biofilm [2]): 10 to 30%
15 | N[C@@H](Cc1c[nH]cn1)C(=O)O [Histidine, L-histidine] | – | – | – | – | neutral, effect on bacterial or fungal biofilms [3]: no effect on bacterial or fungal biofilms
16 | NCCC(=O)O [Beta-Alanine, Beta-alanine] | – | – | – | – | Reduce B Biofilm (S. aureus biofilm [1]; [4]): • (a single dot (●) signifies an effect in a range of about 10 to about 30% change); anti-biofilm properties against bacterial biofilms (bacterial biofilms): anti-biofilm properties against bacterial biofilms
17 | O=C(O)[C@@H]1CCCN1 [Proline, L-proline] | – | 10 to 30 | support (improve) bacterial biofilm growth | promote bacterial and fungal biofilm | –
18 | NCCS(=O)(=O)O [Taurine, L-taurine] | 10 to 30 | 10 to 30 | support (improve) bacterial biofilm growth | – | –
19 | C[C@@H](O)[C@H](N)C(=O)O [Threonine, L-threonine] | 10 to 30 | – | support (improve) bacterial biofilm growth | promote bacterial and fungal biofilm | –
20 | CCC(N)C(=O)O (centres unmarked) [2 Aminobutyric Acid, 2-aminobutyric acid] | – | – | – | – | neutral, effect on bacterial or fungal biofilms [3]: no effect on bacterial or fungal biofilms
21 | NCCCC[C@H](N)C(=O)O [Lysine, L-lysine] | – | – | support (improve) bacterial biofilm growth | promote bacterial and fungal biofilm | activation at 1 % (S. aureus biofilm [1]): 10 to 30%; activation at 1 % (S. aureus biofilm [2]): 10 to 30%
22 | CC[C@H](C)[C@H](N)C(=O)O [Isoleucine, L-isoleucine] | – | 10 to 30 | support (improve) bacterial biofilm growth | promote bacterial and fungal biofilm | –
23 | OCC(O)CO [glycerol] | – | – | – | no measurable effect; also recorded: not found to have antibiofilm effect | –
24 | CSCC[C@H](N)C(=O)O [Methionine, L-methionine] | 10 to 30 | – | support (improve) bacterial biofilm growth | promote bacterial and fungal biofilm | –
25 | NC(CCCC(=O)O)C(=O)O (centres unmarked) [2 Aminoadipic Acid, 2-aminoadipic acid] | – | – | – | – | Reduce B Biofilm (S. aureus biofilm [1]; [4]): • (a single dot (●) signifies an effect in a range of about 10 to about 30% change); inhibition at 1 % (S. aureus biofilm [2]; [5]): 10 to 30%; anti-biofilm properties against bacterial biofilms (bacterial biofilms): anti-biofilm properties against bacterial biofilms
